Data on 17 compounds can be found in patent US20240398781A1, “SPIROCYCLIC CYCLIC MODULATORS OF CHOLESTEROL BIOSYNTHESIS AND THEIR USE FOR PROMOTING REMYELINATION” (GENENTECH, INC., priority 2021, published 2024).

For test [1], the target named is human emopamil binding protein and human 7-dehydrocholesterol reductase co-expressing cells (hEBP-DHCR7 membrane) (Homo sapiens (Human), UniProt Q15125). The experiment in a line: Radioligand filter binding assay on hEBP-DHCR7 membrane. To be noted: [3H]-(S)-6-(2-Methyl-3-(6-(trifluoromethyl)pyridin-3-yl)propyl)-2-thia-6-azaspiro[3.4]octane 2,2-dioxide radioligand, HEK293 membrane co-expressing hEBP and hDHCR7. The procedure, abridged: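 HEK293 cells transiently co-expressing human EBP and DHCR7 supplied whole-cell membranes (10 μg/well), incubated 3 h at 22 °C with [3H]-labelled spiro-octane dioxide ligand (added at 25 nM) and compound (0.06-5000 nM final, 8 doses, n=2). Bound ligand was collected on PEI-treated GF/B filters and counted by scintillation. IC50 was Hill-fitted from % inhibition and reported as Ki.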
Chain of human emopamil binding protein and human 7-dehydrocholesterol reductase co-expressing cells (hEBP-DHCR7 membrane) (Q15125 whole entry): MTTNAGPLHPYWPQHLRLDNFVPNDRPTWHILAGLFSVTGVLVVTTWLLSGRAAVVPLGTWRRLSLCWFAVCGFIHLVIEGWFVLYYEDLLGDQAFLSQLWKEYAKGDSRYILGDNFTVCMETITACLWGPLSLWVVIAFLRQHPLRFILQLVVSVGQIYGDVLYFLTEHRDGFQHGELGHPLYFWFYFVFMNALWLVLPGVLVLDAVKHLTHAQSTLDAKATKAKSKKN

The subject of a further test is EpiSC-derived OPCs. The experiment in a line: In vitro phenotypic screening of OPCs (MBP staining, high-content imaging). The class given is cell-based, mouse. The following applies: Mus musculus, 72 h, percentage of MBP+ oligodendrocytes, 3 days, 0.5 nM to 1000 nM; read-out: OPC EC50. In a few lines:
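Readout: high-content imaging of MBP immunostaining around DAPI nuclei, giving percent oligodendrocytes, with EC50 from a Levenberg-Marquardt Hill fit. Epiblast stem cell-derived OPCs were plated on laminin at 150,000/cm^2 in growth-factor-free N2B27. They were exposed 3 days to an 8-point series, 0.5-1000 nM final, in two or more independent platings.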

`Cc1cc(C(F)(F)F)ncc1[C@H]1CC[C@H](N2CCC3(C2)CS(=O)(=O)C3)CC1` [Compound 21B, 6-((1r,4r)-4-(4-Methyl-6-(trifluoromethyl)pyridin-3-yl)cyclohexyl)-2-thia-6-azaspiro[3.4]octane 2,2-dioxide] had a Ki in test [1] of 46 nM. Besides, the EC50 in the test on EpiSC-derived OPCs is 120 nM.

Turning to `O=S1(=O)CC2(CCN([C@H]3CC[C@@H](c4cc(C(F)(F)F)nn4C4CCC4)CC3)C2)C1` [Compound 23A, 6-((1s,4s)-4-(1-Cyclobutyl-3-(trifluoromethyl)-1H-pyrazol-5-yl)cyclohexyl)-2-thia-6-azaspiro[3.4]octane 2,2-dioxide], in test [1], the Ki worked out at 21 nM. In addition, the EC50 with EpiSC-derived OPCs was found to be 100 nM.

Take `O=S1(=O)CC2(CCN([C@H]3CC[C@H](c4cc(C(F)(F)F)nn4C4CCC4)CC3)C2)C1` [Compound 23B, 6-((1r,4r)-4-(1-Cyclobutyl-3-(trifluoromethyl)-1H-pyrazol-5-yl)cyclohexyl)-2-thia-6-azaspiro[3.4]octane 2,2-dioxide]: the Ki in test [1] is 12 nM. Further, in the test on EpiSC-derived OPCs, the half-maximal effective concentration (EC50) came to 28 nM.

In test [1], `O=S1(=O)CC2(CCN([C@H]3CC[C@H](c4cc(C(F)(F)F)n(C5CCC5)n4)CC3)C2)C1` [Compound 24, 6-((1r,4r)-4-(1-cyclobutyl-5-(trifluoromethyl)-1H-pyrazol-3-yl)cyclohexyl)-2-thia-6-azaspiro[3.4]octane 2,2-dioxide] had a Ki of 11 nM. For the same compound, the EC50 with EpiSC-derived OPCs stood at 6 nM.

Compound `Cn1nc(C(F)(F)F)cc1[C@H]1CC[C@@H](N2CCC3(CC2)CS(=O)(=O)C3)CC1` [Compound 25A, 7-((1s,4s)-4-(1-Methyl-3-(trifluoromethyl)-1H-pyrazol-5-yl)cyclohexyl)-2-thia-7-azaspiro[3.5]nonane 2,2-dioxide] came in with a Ki in test [1] of 450 nM. In addition, the EC50 in the test with EpiSC-derived OPCs is 100 nM.

With `Cn1nc(C(F)(F)F)cc1[C@H]1CC[C@H](N2CCC3(CC2)CS(=O)(=O)C3)CC1` [Compound 25B, 7-((1r,4r)-4-(1-methyl-3-(trifluoromethyl)-1H-pyrazol-5-yl)cyclohexyl)-2-thia-7-azaspiro[3.5]nonane 2,2-dioxide], the Ki in test [1] stood at 270 nM. Further, the EC50 in the test with EpiSC-derived OPCs is 87 nM.

The compound `Cc1cc(C(F)(F)F)ncc1N1CCC(N2CCC3(C2)CS(=O)(=O)C3)CC1` [Compound 28, 6-(1-(4-Methyl-6-(trifluoromethyl)pyridin-3-yl)piperidin-4-yl)-2-thia-6-azaspiro[3.4]octane 2,2-dioxide] gave a Ki in test [1] of 30 nM. Besides, the EC50 in the test on EpiSC-derived OPCs stood at 64 nM.

`Cc1nc(C(F)(F)F)ccc1N1CCC(N2CCC3(C2)CS(=O)(=O)C3)CC1` [Compound 29, 6-(1-(2-methyl-6-(trifluoromethyl)pyridin-3-yl)piperidin-4-yl)-2-thia-6-azaspiro[3.4]octane 2,2-dioxide] had a Ki in test [1] of 230 nM. Further, the EC50 in the test on EpiSC-derived OPCs came to 39 nM.

As for `O=S1(=O)CC2(CCN(C3CCN(c4ncc(C(F)(F)F)cc4Cl)CC3)C2)C1` [Compound 30, 6-(1-(3-chloro-5-(trifluoromethyl)pyridin-2-yl)piperidin-4-yl)-2-thia-6-azaspiro[3.4]octane 2,2-dioxide], in test [1], the Ki was found to be 13 nM. Besides, the EC50 with EpiSC-derived OPCs was found to be 10 nM.

With `Cc1cc(F)cnc1N1CCC(N2CCC3(C2)CS(=O)(=O)C3)CC1` [Compound 31, 6-(1-(5-fluoro-3-methylpyridin-2-yl)piperidin-4-yl)-2-thia-6-azaspiro[3.4]octane 2,2-dioxide], in test [1], the inhibition constant (Ki) worked out at 84 nM. The EC50 in the test on EpiSC-derived OPCs came out at 190 nM.

In test [1], `O=S1(=O)CC2(CCN(C3CCN(c4ncc(C(F)(F)F)cc4F)CC3)C2)C1` [Compound 32, 6-(1-(3-fluoro-5-(trifluoromethyl)pyridin-2-yl)piperidin-4-yl)-2-thia-6-azaspiro[3.4]octane 2,2-dioxide] registered a Ki of 11 nM. Also, the EC50 with EpiSC-derived OPCs was determined as 60 nM.

In test [1], `CC(C)n1nc(-c2cncc(OC(F)F)c2)cc1[C@H]1CC[C@H](N2CCC3(C2)CS(=O)(=O)C3)CC1` [Compound 33A, 6-((1r,4r)-4-(3-(5-(Difluoromethoxy)pyridin-3-yl)-1-isopropyl-1H-pyrazol-5-yl)cyclohexyl)-2-thia-6-azaspiro[3.4]octane 2,2-dioxide] came in with a Ki of 34 nM. Further, the EC50 in the test with EpiSC-derived OPCs was determined as 29 nM.

Compound `CC(C)n1nc(-c2cncc(OC(F)F)c2)cc1[C@H]1CC[C@@H](N2CCC3(C2)CS(=O)(=O)C3)CC1` [Compound 33B, (Cis)-6-(4-(3-(5-(Difluoromethoxy)pyridin-3-yl)-1-isopropyl-1H-pyrazol-5-yl)cyclohexyl)-2-thia-6-azaspiro[3.4]octane 2,2-dioxide] registered a Ki in test [1] of 28 nM. For the same compound, the EC50 in the test with EpiSC-derived OPCs amounted to 53 nM.

In test [1], `CC(C)n1nc(N2CC(F)(F)C2)cc1[C@H]1CC[C@H](N2CCC3(C2)CS(=O)(=O)C3)CC1` [Compound 35, 6-((1r,4r)-4-(3-(3,3-Difluoroazetidin-1-yl)-1-isopropyl-1H-pyrazol-5-yl)cyclohexyl)-2-thia-6-azaspiro[3.4]octane 2,2-dioxide] gave an inhibition constant Ki of 280 nM. Also, the EC50 in the test on EpiSC-derived OPCs turned out to be 210 nM.

For the compound `O=S1(=O)CC2(CCN([C@H]3CC[C@@H](c4cc(C(F)(F)F)nn4C4CC4)CC3)CC2)C1` [Compound 40A, 7-((1r,4r)-4-(1-cyclopropyl-3-(trifluoromethyl)-1H-pyrazol-5-yl)cyclohexyl)-2-thia-7-azaspiro[3.5]nonane 2,2-dioxide], the Ki in test [1] is 59 nM. Also, in the test with EpiSC-derived OPCs, the EC50 came to 22 nM.

As for `O=S1(=O)CC2(CCN([C@H]3CC[C@H](c4cc(C(F)(F)F)nn4C4CC4)CC3)CC2)C1` [Compound 40B, 7-((1s,4s)-4-(1-cyclopropyl-3-(trifluoromethyl)-1H-pyrazol-5-yl)cyclohexyl)-2-thia-7-azaspiro[3.5]nonane 2,2-dioxide], in test [1], the Ki was 183 nM. In addition, in the test on EpiSC-derived OPCs, the EC50 came out at 71 nM.

`Cc1cc(C(F)(F)F)cnc1[C@H]1CC[C@H](N2CCC3(C2)CS(=O)(=O)C3)CC1` [Compound 47B, 6-((1r,4r)-4-(3-methyl-5-(trifluoromethyl)pyridin-2-yl)cyclohexyl)-2-thia-6-azaspiro[3.4]octane 2,2-dioxide] showed a Ki in test [1] of 23 nM. Further, the EC50 with EpiSC-derived OPCs was 20 nM.
